Patent publication US20050009837A1, “Modulators of lipid metabolism and methods of use” (City of Hope, priority 2003, published 2005)

What was measured:
[1] = biological target: T1, LXRβ-RXR heterodimers / SRC-1 (Homo sapiens, UniProt P55055); experiment: In vitro coactivator recruitment/displacement assay (gel), LXRβ, RXR, GST-SRC-1, 32P-LXRE probe; type: biochemical; details: 10 μM
T1 construct: made in house; host or cells: receptors translated in vitro
Protocol: This was tested more directly using an in vitro coactivator recruitment/coactivator displacement assay. This assay has the advantage that it is performed with receptors bound to DNA and that it measures a direct interaction between receptor and coactivator with no interference by other proteins that may indirectly stabilize the complex. The assay was performed by mixing in vitro translated LXRα or LXRβ, RXR, 5 μg of purified GST-SRC-1 and a ^32P-labeled LXRE probe with or without 10 μM Clotrimazole according to previously described methods. Wang et al., Mol. Cell 3:543-553, 1999. The complexes then were separated through 5.5% polyacrylamide gels. The probe used represents a DR-4 element derived from the human SREBP-1c promoter (nt 337-361, accession no. AB046200).

human LXRα = biological target: T2, human LXRα (Homo sapiens, UniProt Q13133); experiment: Full-length hLXRα/hRXRα LXREx3 TK-Luc reporter assay in transfected CV-1 cells; type: cell-based; details: 20 μM, 40 hours
T2 construct: expressed in transfected cells; host or cells: CV-1 cells
T2 sequence (Q13133 1-447): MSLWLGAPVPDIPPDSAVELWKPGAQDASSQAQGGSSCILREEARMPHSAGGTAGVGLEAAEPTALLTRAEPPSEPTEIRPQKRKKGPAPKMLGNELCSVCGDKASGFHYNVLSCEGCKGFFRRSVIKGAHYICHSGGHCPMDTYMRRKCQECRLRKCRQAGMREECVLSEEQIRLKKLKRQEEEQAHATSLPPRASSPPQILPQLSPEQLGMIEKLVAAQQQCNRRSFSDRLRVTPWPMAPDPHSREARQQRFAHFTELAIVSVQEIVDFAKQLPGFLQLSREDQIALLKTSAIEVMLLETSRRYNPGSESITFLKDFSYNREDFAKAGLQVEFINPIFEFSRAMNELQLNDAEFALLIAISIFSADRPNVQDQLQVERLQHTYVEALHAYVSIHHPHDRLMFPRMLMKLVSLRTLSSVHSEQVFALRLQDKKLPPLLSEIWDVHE
T2 sequence (P19793 1-462 partner): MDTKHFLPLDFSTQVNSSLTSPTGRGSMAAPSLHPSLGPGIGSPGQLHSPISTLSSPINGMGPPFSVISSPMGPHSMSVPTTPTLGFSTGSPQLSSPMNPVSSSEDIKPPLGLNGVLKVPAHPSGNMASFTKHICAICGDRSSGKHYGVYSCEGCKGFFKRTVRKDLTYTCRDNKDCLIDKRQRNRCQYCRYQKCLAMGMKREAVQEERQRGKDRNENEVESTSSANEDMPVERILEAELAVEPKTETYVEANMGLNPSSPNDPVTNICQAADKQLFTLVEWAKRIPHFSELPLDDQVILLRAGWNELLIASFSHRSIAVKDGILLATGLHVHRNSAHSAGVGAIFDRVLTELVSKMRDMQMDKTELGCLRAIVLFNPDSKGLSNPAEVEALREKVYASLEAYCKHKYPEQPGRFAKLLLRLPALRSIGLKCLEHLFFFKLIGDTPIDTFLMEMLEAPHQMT
Protocol: CV-1 cells were grown in DMEM supplemented with 10% resin-charcoal stripped fetal bovine serum, 50 U/ml penicillin G and 50 μg/ml streptomycin sulfate at 37° C. in 5% CO2. Cells were plated to 50-80% confluence one day prior to transfection using phenol red-free DMEM-FBS. The cells were transfected by lipofection using N-[1-(2,3-dioleoyloxy)propyl]-N,N,N-ammonium methyl sulfate according to manufacturer's instructions (Boehringer Mannheim).
Genes encoding the following full-length proteins, which are suitable for use in the studies described herein, were cloned into pCMX: human RXRα (Gene Bank accession X52773) and human LXRα (GenBank accession U22662). The cells were transfected with CMX-βgal and luciferase constructs. The CMX-βGal construct contained the ligand binding domain of human RXR (hRXRα) and the ligand binding domain of human LXRα (hLXRα) as indicated in FIG. 1. The luciferase reporter construct (LXREx3 TK-Luc) contained the herpes virus thymidine kinase promoter (−105/+51) linked to three copies of the response element LXRE. After transfection, the cells were treated with 20 μM of a synthetic azole test compound or vehicle alone for 40 hours in phenol red-free DMEM-FBS.

PPARα = PPARα (Homo sapiens, UniProt Q07869); experiment: PPARα activity (data not shown); type: cell-based
RXR = biological target: T3, RXR (Homo sapiens, UniProt P19793); experiment: Transient transfection assay RXR LBD alone, UASGx4 TK Luc reporter, CV-1 cells; type: cell-based; details: lipid-stripped serum
T3 construct: transfecting CV-1 cells with either the RXR LBD alone; expressed in transfected cells; host or cells: CV-1 cells
Protocol: Synthetic compounds were screened in an effort to find more specific LXR inhibitors. CV-1 cells were maintained and transfected using known methods. Forman et al., Cell 81: 687-693, 1995. CV-1 cells were transiently transfected with Gal-hLXRα, the RXR LBD, the UASGx4 TK Luc reporter and CMX-β-gal as an internal control, either in standard or in lipid-stripped serum. After transfection, cells were treated for approximately 40 hours with phenol red-free DMEM-FBS containing the indicated compounds at the following concentrations: T0901317 (100 nM), Clotrimazole (10 μM), S883417(10 μM) and S100250 (10 μM), unless otherwise specified. After exposure to ligand, the cells were harvested and assayed for luciferase and β-galactosidase activity. The luciferase activity was normalized to the internal β-galactosidase control (reporter activity).
The ability of these compounds to repress LXRα and LXRβ was compared by transfecting CV-1 cells with either the RXR LBD alone or the RXR LBD together with either Gal-LXRα or Gal-LXRβ.

T1 sequence (P55055 whole entry, one chain of several): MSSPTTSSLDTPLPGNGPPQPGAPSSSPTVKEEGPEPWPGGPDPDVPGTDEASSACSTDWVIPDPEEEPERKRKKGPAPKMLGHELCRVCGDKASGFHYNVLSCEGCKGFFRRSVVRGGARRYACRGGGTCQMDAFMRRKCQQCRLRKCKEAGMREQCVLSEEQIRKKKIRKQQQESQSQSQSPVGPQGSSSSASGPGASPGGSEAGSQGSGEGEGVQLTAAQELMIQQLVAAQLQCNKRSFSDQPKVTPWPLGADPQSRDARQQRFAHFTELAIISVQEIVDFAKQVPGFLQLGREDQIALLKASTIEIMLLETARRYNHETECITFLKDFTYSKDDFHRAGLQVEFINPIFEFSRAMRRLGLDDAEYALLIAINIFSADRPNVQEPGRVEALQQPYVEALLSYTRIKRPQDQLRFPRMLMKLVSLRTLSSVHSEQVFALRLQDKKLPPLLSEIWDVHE
Sequence of PPARα (Q07869 whole entry, species assumed, the tested form may be a part): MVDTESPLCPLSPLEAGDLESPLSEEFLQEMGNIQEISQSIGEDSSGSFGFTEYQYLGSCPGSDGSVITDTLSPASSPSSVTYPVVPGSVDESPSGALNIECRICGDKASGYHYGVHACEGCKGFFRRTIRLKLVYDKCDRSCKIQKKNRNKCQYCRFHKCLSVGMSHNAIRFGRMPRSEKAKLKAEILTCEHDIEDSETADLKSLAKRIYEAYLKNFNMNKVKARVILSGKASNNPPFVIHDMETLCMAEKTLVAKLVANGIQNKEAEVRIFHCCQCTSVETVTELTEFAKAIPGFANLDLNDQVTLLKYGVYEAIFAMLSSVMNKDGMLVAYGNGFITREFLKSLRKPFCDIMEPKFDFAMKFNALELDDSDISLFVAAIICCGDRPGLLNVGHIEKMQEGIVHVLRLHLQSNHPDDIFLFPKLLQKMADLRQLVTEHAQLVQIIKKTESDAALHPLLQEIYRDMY

## Clc1ccccc1C(c1ccccc1)(c1ccccc1)n1ccnc1 [Clotrimazole]
[1]; lane 7
  effect on LXRβ-RXR heterodimers (bound to LXRE probe): no effect
[1]; lane 8
  interaction of LXRβ-RXR with SRC-1: prevented the interaction with SRC-1
Human LXRα
  antagonism of constitutive activation mediated by LXR (hLXRα activity, LXREx3 TK-Luc): antagonize the constitutive activation mediated by LXR
PPARα
  effect on PPARα activity: no effect
RXR
  effect on RXR: no effect
